Reference: article PMC1887774 (The Journal of General Physiology, 1998)
“Also recorded” adds a separate entry of the source.

Key:
[1] = target: T1, rat brain type IIA sodium channels (F1489Q α subunit + wild-type β1) (Rattus norvegicus, UniProt P04775, F1489Q/N209D); type: biochemical, rat (expressed in Xenopus laevis oocytes)
sodium channels = settings: ref Eaholtz et al., 1994, cited from earlier work
[2] = target: T1, rat brain type IIA sodium channels (F1489Q α subunit + wild-type β1); type: biochemical, rat (expressed in Xenopus laevis oocytes); remark: listed apart in the source
[3] = test system: cardiac sodium channel with mutations in M1651 and M1652; settings: whole-cell recording, ref Tang et al. (1996), cited from earlier work

T1 sequence (P04775 whole entry N209D/F1489Q): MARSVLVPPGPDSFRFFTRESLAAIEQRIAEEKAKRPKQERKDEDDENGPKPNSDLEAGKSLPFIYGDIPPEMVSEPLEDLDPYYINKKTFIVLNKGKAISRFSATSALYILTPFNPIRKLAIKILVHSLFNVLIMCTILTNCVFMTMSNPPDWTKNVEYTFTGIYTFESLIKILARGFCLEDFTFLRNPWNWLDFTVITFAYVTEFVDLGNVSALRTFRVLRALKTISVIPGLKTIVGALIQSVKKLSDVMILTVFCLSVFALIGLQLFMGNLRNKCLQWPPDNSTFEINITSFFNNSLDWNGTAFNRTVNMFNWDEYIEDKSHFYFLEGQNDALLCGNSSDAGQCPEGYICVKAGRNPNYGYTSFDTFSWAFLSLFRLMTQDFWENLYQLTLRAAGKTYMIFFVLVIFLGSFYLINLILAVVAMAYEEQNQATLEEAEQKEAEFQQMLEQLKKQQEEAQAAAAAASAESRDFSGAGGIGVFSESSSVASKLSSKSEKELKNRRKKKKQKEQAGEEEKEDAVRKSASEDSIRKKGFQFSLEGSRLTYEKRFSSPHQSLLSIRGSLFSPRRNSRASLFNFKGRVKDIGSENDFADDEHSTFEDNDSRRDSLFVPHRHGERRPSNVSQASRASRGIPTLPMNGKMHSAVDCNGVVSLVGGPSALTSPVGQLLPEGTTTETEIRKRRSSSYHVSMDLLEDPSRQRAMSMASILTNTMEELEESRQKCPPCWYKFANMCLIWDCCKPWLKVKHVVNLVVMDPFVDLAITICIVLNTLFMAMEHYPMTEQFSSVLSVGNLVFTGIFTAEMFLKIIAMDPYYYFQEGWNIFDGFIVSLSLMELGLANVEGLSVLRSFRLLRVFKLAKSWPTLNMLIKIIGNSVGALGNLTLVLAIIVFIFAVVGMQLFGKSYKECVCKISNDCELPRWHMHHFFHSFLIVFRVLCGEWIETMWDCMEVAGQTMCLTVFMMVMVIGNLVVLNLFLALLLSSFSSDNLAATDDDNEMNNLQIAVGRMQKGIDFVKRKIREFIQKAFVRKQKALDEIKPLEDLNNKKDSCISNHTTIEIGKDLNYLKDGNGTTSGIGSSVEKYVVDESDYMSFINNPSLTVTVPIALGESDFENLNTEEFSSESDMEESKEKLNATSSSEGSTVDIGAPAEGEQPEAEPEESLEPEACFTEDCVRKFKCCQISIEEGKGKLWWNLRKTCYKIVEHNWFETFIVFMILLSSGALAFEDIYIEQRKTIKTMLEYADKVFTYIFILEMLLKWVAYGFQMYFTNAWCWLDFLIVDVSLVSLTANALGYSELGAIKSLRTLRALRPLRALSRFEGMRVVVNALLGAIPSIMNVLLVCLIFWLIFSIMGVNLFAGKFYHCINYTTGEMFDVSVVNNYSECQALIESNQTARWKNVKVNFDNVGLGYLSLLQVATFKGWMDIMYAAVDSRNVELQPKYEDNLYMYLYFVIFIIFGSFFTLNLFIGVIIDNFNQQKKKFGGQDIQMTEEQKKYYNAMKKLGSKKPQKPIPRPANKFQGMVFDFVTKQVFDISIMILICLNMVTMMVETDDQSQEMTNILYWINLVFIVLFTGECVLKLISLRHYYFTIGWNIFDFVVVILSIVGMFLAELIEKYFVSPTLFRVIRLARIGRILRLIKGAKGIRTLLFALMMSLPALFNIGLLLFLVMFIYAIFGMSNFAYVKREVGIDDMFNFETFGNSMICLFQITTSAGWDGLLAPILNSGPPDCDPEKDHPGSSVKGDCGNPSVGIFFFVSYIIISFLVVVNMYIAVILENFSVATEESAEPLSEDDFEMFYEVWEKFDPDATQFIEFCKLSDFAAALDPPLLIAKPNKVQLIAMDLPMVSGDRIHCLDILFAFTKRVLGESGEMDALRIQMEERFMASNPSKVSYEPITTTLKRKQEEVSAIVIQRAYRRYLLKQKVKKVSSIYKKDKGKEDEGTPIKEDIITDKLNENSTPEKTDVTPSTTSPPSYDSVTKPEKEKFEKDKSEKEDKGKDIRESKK
T1 sequence (Q00954 19-218 partner): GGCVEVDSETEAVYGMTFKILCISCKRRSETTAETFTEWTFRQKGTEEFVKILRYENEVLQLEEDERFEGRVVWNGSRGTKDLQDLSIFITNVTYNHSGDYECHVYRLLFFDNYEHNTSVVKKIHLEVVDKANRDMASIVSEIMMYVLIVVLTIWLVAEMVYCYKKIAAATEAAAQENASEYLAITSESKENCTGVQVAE

## CC[C@H](C)[C@H](NC(=O)[C@H](CCCCN)NC(C)=O)C(=O)N[C@@H](Cc1ccccc1)C(=O)N[C@@H](CCSC)C(=O)N[C@@H](CCCCN)C(N)=O [KIFMK, acetyl-KIFMK-NH2]
[1]; 100 μM KIFMK, voltage step from −100 to 0 mV
  block of the steady state sodium current: > 70%
[1]; read-out: unblocking rate k u (= k off)
  koff: 342 ± 21 s⁻¹
Sodium channels; cytoplasmic application
  types of block: a rapid block, which occurs in milliseconds and resembles inactivation in kinetics and voltage dependence, and a cumulative, use-dependent block, which occurs during repetitive high voltage pulses
Sodium channels
  slow block: slow block that occurs at voltages more depolarized than 0 mV
  state preference of block: appears to preferentially block open channels
[2]; 100 μM KIFMK compared with no peptide control, test voltages −80 to 110 mV
  shift of the I-V relationship: negative shift of the I-V relationship
[2]; 100 μM KIFMK, −30 to 30 mV
  voltage dependence of unblocking (off) rates: voltage independent; also recorded: not affected by voltage; also recorded: no voltage dependence
[2]; 100 μM KIFMK, −30 to 30 mV, mean ± SEM, n = 4
  mean unblocking rate k u over the voltage range: 336 ± 14 s⁻¹
[2]; 100 μM KIFMK, e-fold factor of k b (Fig. 3 B) and k on (Scheme 1)
  voltage constant of blocking rate fit, exp^(V/43 mV): 43 mV
[2]; if both charges enter the electric field to an equivalent extent
  extent of the electric field traversed by the lysine charges: 30%
[3]; outward sodium currents
  K d from ratio of the on and off rates: ~30 µM
[3]
  dependence of the on rate on peptide concentration: deviated significantly from linearity
  voltage dependence of block rate: no voltage dependence of block rate was detected
